# From patent US9868773B2, “Peptide for treatment of type 2 diabetes mellitus and its complications” (DAPHOT ENTERPRISES LIMITED, priority 2014, dated 2018)
# Entries after “also recorded” stand apart in the source; their conditions may differ. Marks after values point to notes of the source that are not given here.
# Key:
# [1] = test system: chemical experimental diabetes induced by a single injection of Streptozocin (STZ) and nicotinamide to male rats; test: Determination of glucose in peripheral blood of rats with STZ/nicotinamide-induced experimental diabetes; type: in vivo, rat; conditions: fasted STZ/nicotinamide rats; daily for 80 days; Byetta and exenatide 4.5 ppb, D-peptide 6.0 ppb subcutaneously, Metformin 85.7 ppm intragastrically; vs control group
# Procedure: (§1) In accordance with the experiment schedule, animals underwent induction of experimental diabetes mellitus using single injection of Streptozotocin (STZ) abdominally in the dose of 65 ppm previously diluted in citrate buffer (pH=6.5) on the day 0. All animals were injected abdominally with nicotinomide in the dose of 230 ppm (5% solution) 2 hours before it.
# Glucose level measurement in peripheral blood of rats was conducted using the glucose meter OneTouch® and dipsticks OneTouch® by the glucose oxidase test. Rats were deprived of feed, but not water for a night before glucose level measurement. The measurement process was as follows: an animal with a required mark was removed from the cage, its tail was treated with bactericidal agent, a vein was punctured using a syringe needle, and the glucose meter with a dipstick was brought in place when a blood drop was effused. Obtained data was entered into the initial card.
# [2] = test system: chemical experimental diabetes induced by a single injection of Streptozocin (STZ) and nicotinamide to male rats; test: Determination of glycosylated hemoglobin (HbA1c) in blood of diabetic rats; type: in vivo, rat; conditions: for Glycosylated hemoglobin, %: M ± m, 81st day of daily injection, Byetta and exenatide 4.5 ppb, D-peptide 6.0 ppb s.c., Metformin 85.7 ppm i.g., intact 4.2, control 15.6; for reduction of HbA1c concentration, therapy effect in intergroup comparison: vs control group, after 80-day therapy
# Procedure: as §1
# A sample of venous blood was taken to determine the glycosylated hemoglobin level of animals on the day of euthanasia. The following organs were also taken for pathomorphological study: sciatic nerve, part of mesentery artery, part of retina artery, part of gastrocnemius muscle and pancreatic gland.
# Determination of glycosylated hemoglobin in venous blood was conducted using the kit of reagents “Diabetes Test, HbA1c” (“Phosphosorb” LLC, Russia) by the method of affinity chromatography of glycosylated and non-glycosylated hemoglobin fractions in rat blood hemolysate.
# Blood samples for determination of glycosylated hemoglobin in hemolysate of animal red blood cells were taken from the tail vein of experimental animals on the 81st day of daily injection of test products.
# [3] = test system: rats with diabetic neuropathy; test: Assessment of tactile allodynia (von Frey hairs) on rats with diabetic neuropathy; type: in vivo, rat; conditions: for effect on tactile allodynia manifestation in diabetic neuropathy: 60th-80th day of injection, vs control group; for mean value of paw withdrawal threshold, 60th day of products injection: Byetta and exenatide 4.5 ppb, D-peptide 6.0 ppb s.c., Metformin 85.7 ppm i.g. daily, control 2.77, intact 27.74; for mean value of paw withdrawal threshold, 70th day of products injection / mean value of paw withdrawal threshold, 80th day of products injection: same doses; for mean value of paw withdrawal threshold, 70th day of products injection: control 3.10, intact 26.94; for mean value of paw withdrawal threshold, 80th day of products injection: control 3.46, intact 27.74
# Procedure: as §1
# A rat was put into a plastic cage with a grating floor made of metal wire and left in this cage for 5 minutes to extinguish orientation response.
# Threshold of each rat was initially determined on the left paw, and then on the right paw. A hair end touched the middle of the plantar surface on the paw with the force required for hair bending, and it was left in this position for 6-8 seconds. Positive response was recorded if the animal withdrew its paw abruptly during touching, or removal of a hair was followed by sharp paw bending.
# Testing was started from application of a hair corresponding to the force of 3.630 g. Then stimuli (hairs) were used in the increasing and decreasing sequence. The hair with the least coarseness was used in case of positive response, while the hair with the largest coarseness was used in case of negative response. 4 more hairs were used according to the same principle after initial determination of sensitivity threshold.
# Psychophysiological mean effective threshold of tactile responsiveness was calculated by the method described by Dixon.
# [4] = test system: mesenteric artery intima of rats; conditions: after 80-day injection; vs control group (FIG. 3)
# Text: (§2) Nuclei were counterstained with hemalum.
# (§3) 4.8. and image editor PhotoM 1.21.
# [5] = test system: sciatic nerve tissue; test: Condition assessment of sciatic nerve tissue of diabetic rats (histology, morphometry); type: in vivo, rat; conditions: for pathomorphological condition of sciatic nerve tissue: histology after 80-day injection; for Nerve stem thickness, μm / Endoneurium connective tissue area, μm^2: sciatic nerve after 80-day injection; for Nerve stem thickness, μm: intact 340.5, control 203.3; for Endoneurium connective tissue area, μm^2: intact 2,596.3, control 3,962.5
# Text: as §2, §3
# [6] = test system: gastrocnemius muscle; test: Condition assessment of muscle tissue (gastrocnemius muscle) of diabetic rats; type: in vivo, rat; conditions: for Cross section area of fibers, μm^2: gastrocnemius muscle, M ± m, after 80-day injection, intact 1,450, control 551.1; for pathomorphological condition of gastrocnemius muscle tissue: histology after 80-day injection
# Text: as §2, §3
# [7] = test system: rats with alcohol neuropathy; conditions: D-peptide 10 ppb, 100th day of daily injection; vs control group, p<0.05; 30% alcohol forced drinking
# Procedure: Tactile allodynia was assessed prior to modeling of alcohol neuropathy on the 1st day of product injection, and on the 50th and 100th day of daily injection. Data are given as a mean threshold value of paw withdrawal (g) (M±m).
# The allodynia test was performed on the 60th, 70th and 80th days of injection of medicinal products during experiment. In case of alcohol neuropathy, the tactile responsiveness test was performed on the 1st, 50th and 100th day of injection of medicinal products.
# Assessment of tactile allodynia was performed in the same way as in the example 7.
# [8] = test system: pancreatic gland insular apparatus; test: Pancreatic gland insular apparatus of diabetic rats (islet area morphometry); type: in vivo, rat; conditions: after 80-day injection; intact 0.066, control 0.012
# Procedure: as §2, §3
# 1. pancreatic gland insular apparatus where measurement of islets area was performed;
Compound,antihyperglycemic effect (glucose level in peripheral blood) [1],"Glycosylated hemoglobin, % [2]","reduction of HbA1c concentration, therapy effect in intergroup comparison [2]",effect on tactile allodynia manifestation in diabetic neuropathy [3],"mean value of paw withdrawal threshold, 60th day of products injection ([3]; M ± m)","mean value of paw withdrawal threshold, 70th day of products injection ([3]; M ± m)","mean value of paw withdrawal threshold, 80th day of products injection ([3]; M ± m)","mesenteric artery intima thickness, effect [4]",pathomorphological condition of sciatic nerve tissue [5],"Nerve stem thickness, μm [5]","Endoneurium connective tissue area, μm^2 [5]","Cross section area of fibers, μm^2 [6]",pathomorphological condition of gastrocnemius muscle tissue [6],effect on tactile allodynia in alcohol neuropathy [7],"mean value of paw withdrawal threshold, Baseline ([3]; M ± m, baseline, prior to injection of test products)","Area of pancreatic gland islets, mm² [8]"
14-glycine-exendin-4 (Heloderma suspectum)-(1-39)-peptidyl-octa-D-arginyl-glycine [D-peptide],had antihyperglycemic effect during therapy with duration of 80 days starting from the 40th day of injection,5.5 ± 0.53 %,maximum therapy effect,decreased tactile allodynia manifestations significantly,16.15 ± 4.18 g,13.91 ± 3.59 g,15.05 ± 3.67 g,Maximum effect,had a positive therapeutic effect,303.6 ± 20.3 μm,"1,956.1 ± 273.4** μm^2","1,472 ± 282* μm^2",had apparent therapeutic action on muscle tissue,decrease in tactile allodynia intensity,–,–
CN(C)C(=N)N=C(N)N [Metformin],showed antihyperglycemic properties starting from the 20th day of therapy,5.7 ± 0.25 %,maximum therapy effect,decreased allodynia manifestation intensity slightly,4.94 ± 0.90 g,4.98 ± 0.87 g,4.28 ± 0.45 g,–,did not have a therapeutic effect on nerve tissue; also recorded: nerve stem edema and excess increase of its thickness,382 ± 23.4 μm,"2,826.3 ± 298.9* μm^2","1,286 ± 157* μm^2",Minimum focal inflammatory infiltration of fibers and interstitial tissue,–,28.82 ± 0.00 g,0.034 ± 0.004 mm²
